Marks after values point to notes of the source that are not given here.
Key:
anemic Wistar rats = assay: Prevention of iron absorption in anemic rats; assay type: in vivo, rat; conditions: 1 h before 0.5 mg/kg ferrous sulfate
Protocol: To assess the in vivo efficacy of ferroportin (Fpn) inhibitors to block iron absorption, a series of Fpn inhibitors were tested in an anemic rat model for iron absorption. Wistar rats (3-4 weeks old, n=5, Janvier Labs) were fed a low iron diet (Provimi-Kliba, Cat. 2039) until their hemoglobin (Hb) values reach 7-8 g/dl one day before dosing of the Fpn inhibitor compounds. One hour before oral application of 0.5 mg/kg of ferrous sulfate, test compounds formulated in methyl cellulose or Cremophor were dosed orally. Blood samples were taken by tail vein puncture one hour before administration of iron (−1 h), immediately after dosing of the Fpn inhibitors (0 h) and one hour (1 h), three hours (3 h) and occasionally up to 6 hours (6 h) after dosing of the test compounds. Serum iron levels were measured (Abbott Diagnostics, Cat. 6K95) and inhibition of the rise of serum iron three hours after dosing of the test compound was calculated as a measure for efficacy of the Fpn inhibitors in blocking iron absorption (Table 7).

Hbb th3/+ mice [1] = assay: Improvement of anemia, ineffective erythropoiesis and iron overload in a mouse model of β-thalassemia intermedia; assay type: in vivo; conditions: hemoglobin difference to vehicle
b2m−/− mice = assay: Correction of hyperferremia in beta2-microglobulin deficient mice; assay type: in vivo, mouse; conditions: male b2m−/− mice, Dose 20 mg/kg oral, blood collected 1 (#) hour after dosing
Protocol: Female and male homozygous b2m−/− mice were supplied from Jackson Laboratories (B6.129P2-B2mtm1Unc/J, Stock Number: 002087) at age of 6 to 7 weeks and fed standard diet (Harlan Provimi Kliba 3436) ad libitum. Age and gender matched WT C57BL/6 mice are supplied by Charles River. To study the acute effects of ferroportin (Fpn) inhibitors in iron overload b2m−/− mice were treated with compounds or the corresponding amount of vehicle at a volume of 10 ml/kg body weight. Fpn inhibitor compounds were formulated in 0.5% methylcellulose/water or 20% cremophor EL/water and dosed p.o. in mice at 50 mg/kg body weight. WT controls received only vehicle. Three hours later, mice were pre-terminally anesthetized in isoflurane chambers and blood was collected by retro-orbital bleeding. Mice were sacrificed by cervical dislocation and spleens, livers and duodena were harvested and used for biomarker analysis. All experiments have been performed in compliance with license approved by the responsible veterinarian authorities. Serum was isolated by centrifugation of blood into gel-containing microtainers (BD Biosciences) and serum iron was determined by the MULTIGENT Iron assay (Abbott Diagnostics, Cat. 6K95). Four to nine mice per group were used and one-way ANOVA with Bonferroni's multiple comparison test was applied to analyze the statistical differences between the experimental groups.
Blood was collected 1 (#) or 3 (##) hours after oral administration of the indicated doses of Fpn inhibitors to beta2-microglobulin deficient mice and serum iron concentrations were measured. Relative reduction (%) of serum iron levels are shown, which were calculated by subtracting the average of serum iron values of animals dosed with the Fpn inhibitor from that of vehicle-treated animals. The difference in average serum iron values between vehicle and compound treated groups was then divided by the average of serum iron of the vehicle control group and listed as percentage.

Hbb th3/+ mice [2] = assay: Improvement of anemia, ineffective erythropoiesis and iron overload in a mouse model of β-thalassemia intermedia; assay type: in vivo; conditions: % change to vehicle; for Decrease in serum iron: dosed for 3 h
Protocol: The efficacy of Fpn inhibitors was investigated using a mouse model of transfusion-independent β-thalassemia. Mice with heterozygous deletion of β1 and β2 globin genes (called Hbb th3/+ mice) develop transfusion-independent anemia, ineffective erythropoiesis, splenomegaly and secondary iron overload in spleen, liver and kidneys. […] Hbb th3/+ mice were dosed twice daily with either compound at 20 or 60 mg/kg or with methylcellulose (10 ml/kg, Sigma, Cat. 274429) as a vehicle. Between both doses mice had access to drinking water supplemented with 1 mM ^58Fe(II)-sulfate (Vifor Pharma, Batch No. ROR 3096) and 10 mM ascorbic acid (Sigma, Cat. 795437) for 6 h. […] Water without ^58Fe(II)-Sulfate and ascorbic acid was provided during the remaining 18 h. Dosing of Fpn inhibitors or vehicle followed by exposure to iron-containing water was repeated for 20 to 46 days in individual experiments.
Additional hematologic parameters were measured in terminal blood using automated blood cell analyzer.
The inefficient erythropoiesis of Hbb th3/+ mice causes excessive proliferation of erythroid precursors in spleen, leading to splenomegaly.
Erythroferrone is produced by erythrocyte precursors proliferating massively in spleens of Hbb th3/+ mice as a consequence of extramedullar erythropoiesis.
Increased iron demand due to inefficient erythropoiesis and chronically low hepcidin levels in patients with thalassemia causes organ iron loading and associated morbidities, such as hepatocellular carcinoma and heart failure (Rivella S. Haematologica, 2015). Hbb th3/+ mice absorb excessive amounts of iron as a consequence of inadequately low hepcidin levels relative to the high iron content in liver, spleen and kidney and increased ferroportin expression in duodenum (Gardenghi S., Blood, 2007).
Additionally, reactive oxygen species (ROS) were detected in bone marrow cells using a fluorescent indicator, CM-H2DCFDA (Thermo Fisher Scientific, Cat. C6827).
Table 10. Efficacy of Ferroportin inhibitors in a mouse model of thalassemia intermedia (Hbb th3/+ mice). […] Data are expressed as difference to the vehicle control group for hemoglobin and as % change to the vehicle control group for all other parameter shown

**Q.** Which “Serum Iron Inhibition (%) at 3 h” value (anemic Wistar rats; Dose 10 mg/kg oral) does the source give for O=C(NCc1ncccc1F)c1cnc(CCNCCc2nc3ccccc3[nH]2)o1 [Example 1] here?
**A.** 42.6** %

**Q.** What about the “Serum Iron Inhibition (%) at 3 h” value (anemic Wistar rats; Dose 30 mg/kg oral) of the same molecule?
**A.** 64.9*** %

**Q.** O=C(NCc1ncccc1F)c1cnc(C2CN(CCc3nc4ccccc4[nH]3)C2)o1 [Example 2] was tested. Which “Correction of anemia at day 20-48” value (Hbb th3/+ mice [1]; 20 mg/kg twice daily) did it give?
**A.** 3 g/L

**Q.** And the “Correction of anemia at day 20-48” value (Hbb th3/+ mice [1]; 60 mg/kg twice daily)?
**A.** 11 g/L

**Q.** How did the “Serum Iron Reduction (%)” value (b2m−/− mice) turn out when O=C(NCc1ncccc1F)c1csc(CCNCc2nc3ccccc3[nH]2)n1 [Example 40] was run?
**A.** 35** %

**Q.** And the “Decrease in serum erythropoietin” value (Hbb th3/+ mice [2]; 20 mg/kg twice daily for 20-46 days)?
**A.** 6%

**Q.** What about the “Decrease in serum iron” value (Hbb th3/+ mice [2]; 20 mg/kg) of the same molecule?
**A.** 28%

**Q.** What about the “Decrease in serum iron” value (Hbb th3/+ mice [2]; 60 mg/kg) of the same molecule?
**A.** 58%

Source: US11066399B2, “Ferroportin inhibitors” (Vifor (International) AG, priority 2015, dated 2021)
